Laboratory results taken from PMC2951497 (Journal of medicinal chemistry, 2010).
“Also recorded” adds a separate entry of the source.

Tests used:
BZP (rat brain site) = assay: NIMH-PDSP binding screen; conditions: read-out: Binding affinities (Ki) BZP (rat brain site)
5-HT4 receptors = 5-HT4 receptors (Homo sapiens, UniProt Q13639); assay: GloSensor L9 assay for cAMP response; type: cell-based; conditions: agonist/inverse agonist assay; Ag. = agonist; Inv. Ag. = Inverse agonist
hGABAA = assay: NIMH-PDSP binding screen; parameters: species or system human; conditions: read-out: Binding affinities (Ki) hGABAA
[1] = target: human recombinant 5-HT4 receptors (h5-HT4) (Homo sapiens, UniProt Q13639); assay: NIMH-PDSP binding to human recombinant 5-HT4 receptors, [3H]GR 113808; conditions: for h5-HT4 Ki: h5-HT4 receptors expressed in HEK293T cells, averages of triplicate measurements
h5-HT1E = h5-HT1E (Homo sapiens, UniProt P28566); assay: NIMH-PDSP binding screen
h5-HT1E, sequence (P28566 whole entry): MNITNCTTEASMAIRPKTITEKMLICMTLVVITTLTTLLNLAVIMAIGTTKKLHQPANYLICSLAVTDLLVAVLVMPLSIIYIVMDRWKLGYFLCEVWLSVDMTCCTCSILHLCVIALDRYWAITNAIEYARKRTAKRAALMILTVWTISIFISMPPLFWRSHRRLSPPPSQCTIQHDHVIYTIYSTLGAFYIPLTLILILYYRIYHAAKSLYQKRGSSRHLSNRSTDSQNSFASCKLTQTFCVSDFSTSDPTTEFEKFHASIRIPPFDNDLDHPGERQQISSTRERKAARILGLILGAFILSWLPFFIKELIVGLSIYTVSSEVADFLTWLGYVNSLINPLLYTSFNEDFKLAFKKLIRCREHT

human recombinant 5-HT4 receptors (h5-HT4), sequence (Q13639 whole entry): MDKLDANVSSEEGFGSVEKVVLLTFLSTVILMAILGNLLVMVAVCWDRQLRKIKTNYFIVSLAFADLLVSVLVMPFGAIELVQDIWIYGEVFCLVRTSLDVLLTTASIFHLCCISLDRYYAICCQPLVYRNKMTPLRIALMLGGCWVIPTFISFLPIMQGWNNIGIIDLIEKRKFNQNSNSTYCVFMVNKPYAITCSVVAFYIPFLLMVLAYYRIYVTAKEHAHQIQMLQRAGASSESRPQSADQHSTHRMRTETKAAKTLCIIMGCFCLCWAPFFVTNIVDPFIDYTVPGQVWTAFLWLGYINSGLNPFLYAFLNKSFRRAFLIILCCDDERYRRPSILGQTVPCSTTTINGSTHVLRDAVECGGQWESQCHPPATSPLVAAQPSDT
5-HT4 receptors, sequence (Q13639 whole entry, the tested form may be a part): as the sequence (Q13639 whole entry) above

CCCCN1CCC(COC(=O)c2ccc(N)c(OC)c2)CC1 [Compound 13, (1-Butylpiperidin-4-yl)methyl 4-amino-3-methoxybenzoate]
Ki (BZP (rat brain site)): > 10 µM
Efficacy (5-HT4 receptors): antagonists (inactive)
Ki (hGABAA): > 10 µM
selectivity against the full range of tested receptors and binding sites ([1]; 5-HT4 receptor selectivity): greater than 60 fold
h5-HT4 Ki [1]: low nanomolar; also recorded: affinity comparable to that of 1

CCCCN1CCC(COC(=O)c2ccc(N)c3c2OCCO3)CC1 [Compound 4, reference compound]
Efficacy (5-HT4 receptors): antagonists (inactive)

CCCCN1CCC(COC(=O)c2cc(Br)c(NC)c3c2OCCO3)CC1 [Compound 9, (1-Butylpiperidin-4-yl)methyl 7-bromo-8-(methylamino)-2,3-dihydrobenzo[b][1,4]dioxine-5-carboxylate]
h5-HT4 Ki [1]: low nanomolar affinity

CCCCN1CCC(COC(=O)c2cc(F)c(N)c3c2OCCO3)CC1 [Compound 17, (1-Butylpiperidin-4-yl)methyl 8-amino-7-fluoro-2,3-dihydrobenzo[b][1,4]dioxine-5-carboxylate]
Efficacy (5-HT4 receptors): inverse agonists
h5-HT4 Ki [1]: low nanomolar

CCCCN1CCC(COC(=O)c2cc(C)c(N)c3c2OCCO3)CC1 [Compound 7, (1-Butylpiperidin-4-yl)methyl 8-amino-7-methyl-2,3-dihydrobenzo[b][1,4]dioxine-5-carboxylate]
Efficacy (5-HT4 receptors): inactive

CCCCN1CCC(COC(=O)c2cc(Cl)c(NC)c3c2OCCO3)CC1 [Compound 8, (1-Butylpiperidin-4-yl)methyl 7-chloro-8-(methylamino)-2,3-dihydrobenzo[b][1,4]dioxine-5-carboxylate]
Ki (BZP (rat brain site)): > 10 µM
Efficacy (5-HT4 receptors): inverse agonists
Ki (h5-HT1E): > 10 µM
Ki (hGABAA): > 10 µM
h5-HT4 Ki [1]: low nanomolar; also recorded: binding affinity comparable to that of 1

CCCCN1CCC(COC(=O)c2cc(I)c(N)c3c2OCCO3)CC1 [Compound 1, (1-Butylpiperidin-4-yl)methyl 8-amino-7-iodo-2,3-dihydrobenzo[b][1,4]dioxine-5-carboxylate, reference compound]
Efficacy (5-HT4 receptors): inverse agonists

CCCCN1CCC(COC(=O)c2ccc(N)cc2OC)CC1 [Compound 12, (1-Butylpiperidin-4-yl)methyl 4-amino-2-methoxybenzoate]
Efficacy (5-HT4 receptors): potent full agonist
